ChEMBL document CHEMBL1132762, “RGD mimetics containing a central hydantoin scaffold: alpkha(v)beta3 vs alpha(IIb)beta3 selectivity requirements” (Bioorg Med Chem Lett, 2000)

Key:
[1] = molecular target: Integrin alpha-IIb/beta-3 (Homo sapiens, UniProt P05106+P08514); experiment: Inhibition of fibrinogen binding to integrin alphaIIb-beta3; format: protein-complex assay
Integrin alpha-V/beta-3 = Integrin alpha-V/beta-3 (Homo sapiens, UniProt P05106+P06756); experiment: Inhibition of Kistrin binding to integrin alphaV-beta3; format: protein-complex assay
Sequence of Integrin alpha-V/beta-3 (P05106 27-788 limits assumed): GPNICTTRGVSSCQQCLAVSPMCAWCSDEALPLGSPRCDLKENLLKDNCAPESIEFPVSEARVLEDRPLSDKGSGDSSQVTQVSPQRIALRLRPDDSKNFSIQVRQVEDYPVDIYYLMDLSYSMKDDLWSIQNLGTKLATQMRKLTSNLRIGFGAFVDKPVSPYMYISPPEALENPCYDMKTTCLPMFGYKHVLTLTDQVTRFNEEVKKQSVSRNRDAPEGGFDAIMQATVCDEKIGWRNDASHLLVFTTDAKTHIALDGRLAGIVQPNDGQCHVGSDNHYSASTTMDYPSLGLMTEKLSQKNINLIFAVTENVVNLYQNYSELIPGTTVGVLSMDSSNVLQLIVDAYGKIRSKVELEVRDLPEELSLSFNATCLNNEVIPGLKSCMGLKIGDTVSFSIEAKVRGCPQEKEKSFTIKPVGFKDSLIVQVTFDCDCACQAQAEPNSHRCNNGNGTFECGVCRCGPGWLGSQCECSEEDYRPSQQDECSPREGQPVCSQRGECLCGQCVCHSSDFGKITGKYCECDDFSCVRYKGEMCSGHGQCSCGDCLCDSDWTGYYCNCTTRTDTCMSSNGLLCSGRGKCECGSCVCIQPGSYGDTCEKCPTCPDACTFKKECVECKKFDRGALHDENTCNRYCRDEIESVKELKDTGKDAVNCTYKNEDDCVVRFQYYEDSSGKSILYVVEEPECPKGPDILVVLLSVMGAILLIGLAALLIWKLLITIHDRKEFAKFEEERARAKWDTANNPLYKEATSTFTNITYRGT
Sequence of Integrin alpha-V/beta-3 (P06756 31-889 limits assumed): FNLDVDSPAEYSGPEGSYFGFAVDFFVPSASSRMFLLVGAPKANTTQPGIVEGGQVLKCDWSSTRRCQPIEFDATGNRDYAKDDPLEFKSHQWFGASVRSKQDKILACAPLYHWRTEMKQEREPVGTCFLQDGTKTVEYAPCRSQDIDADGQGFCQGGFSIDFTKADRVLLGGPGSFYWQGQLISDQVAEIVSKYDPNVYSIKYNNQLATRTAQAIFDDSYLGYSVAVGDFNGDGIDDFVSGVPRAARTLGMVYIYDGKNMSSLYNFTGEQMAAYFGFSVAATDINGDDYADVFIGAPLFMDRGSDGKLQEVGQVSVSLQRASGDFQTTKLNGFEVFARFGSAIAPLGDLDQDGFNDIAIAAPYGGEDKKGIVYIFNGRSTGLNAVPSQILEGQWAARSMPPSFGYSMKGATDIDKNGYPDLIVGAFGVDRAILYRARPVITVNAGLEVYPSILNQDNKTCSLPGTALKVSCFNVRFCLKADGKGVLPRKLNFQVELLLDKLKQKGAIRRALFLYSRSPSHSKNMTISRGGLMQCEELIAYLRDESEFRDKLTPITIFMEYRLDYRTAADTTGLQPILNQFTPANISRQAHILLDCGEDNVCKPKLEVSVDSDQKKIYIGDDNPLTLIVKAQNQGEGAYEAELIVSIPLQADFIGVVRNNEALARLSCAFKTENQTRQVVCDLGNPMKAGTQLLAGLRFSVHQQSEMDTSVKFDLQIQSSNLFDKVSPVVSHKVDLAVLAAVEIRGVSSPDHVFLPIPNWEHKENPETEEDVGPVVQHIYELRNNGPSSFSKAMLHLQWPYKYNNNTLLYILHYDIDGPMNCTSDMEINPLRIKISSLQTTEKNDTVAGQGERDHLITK
Sequence of Integrin alpha-V/beta-3 (P06756 891-1048 limits assumed): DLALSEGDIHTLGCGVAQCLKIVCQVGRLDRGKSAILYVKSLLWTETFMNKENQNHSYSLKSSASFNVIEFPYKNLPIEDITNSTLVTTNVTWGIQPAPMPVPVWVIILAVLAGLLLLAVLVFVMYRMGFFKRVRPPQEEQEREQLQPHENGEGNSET

Sequence of Integrin alpha-IIb/beta-3 (P05106 27-788 limits assumed): as the sequence (P05106 27-788 limits assumed) above
Sequence of Integrin alpha-IIb/beta-3 (P08514 32-887 limits assumed): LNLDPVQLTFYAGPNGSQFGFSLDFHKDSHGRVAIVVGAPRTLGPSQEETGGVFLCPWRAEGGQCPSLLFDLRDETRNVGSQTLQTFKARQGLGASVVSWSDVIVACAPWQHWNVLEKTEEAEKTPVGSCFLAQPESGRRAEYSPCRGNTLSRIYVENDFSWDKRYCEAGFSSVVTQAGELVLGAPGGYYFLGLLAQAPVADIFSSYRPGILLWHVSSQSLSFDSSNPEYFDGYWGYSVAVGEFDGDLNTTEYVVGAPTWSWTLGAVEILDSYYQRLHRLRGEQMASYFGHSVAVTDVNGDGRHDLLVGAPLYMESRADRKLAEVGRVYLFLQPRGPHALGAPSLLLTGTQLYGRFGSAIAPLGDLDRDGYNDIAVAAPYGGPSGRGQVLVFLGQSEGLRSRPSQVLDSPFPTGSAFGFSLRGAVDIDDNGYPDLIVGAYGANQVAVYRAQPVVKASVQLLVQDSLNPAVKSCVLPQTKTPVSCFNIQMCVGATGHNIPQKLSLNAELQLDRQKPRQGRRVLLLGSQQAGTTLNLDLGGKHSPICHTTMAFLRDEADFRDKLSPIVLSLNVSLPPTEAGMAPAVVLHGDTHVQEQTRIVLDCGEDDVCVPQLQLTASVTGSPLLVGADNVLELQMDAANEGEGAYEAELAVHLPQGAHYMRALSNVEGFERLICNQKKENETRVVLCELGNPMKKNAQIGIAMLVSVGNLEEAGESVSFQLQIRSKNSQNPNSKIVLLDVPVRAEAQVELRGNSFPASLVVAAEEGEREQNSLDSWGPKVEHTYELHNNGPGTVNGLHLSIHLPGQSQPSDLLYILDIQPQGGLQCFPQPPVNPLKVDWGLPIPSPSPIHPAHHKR
Sequence of Integrin alpha-IIb/beta-3 (P08514 891-1039 limits assumed): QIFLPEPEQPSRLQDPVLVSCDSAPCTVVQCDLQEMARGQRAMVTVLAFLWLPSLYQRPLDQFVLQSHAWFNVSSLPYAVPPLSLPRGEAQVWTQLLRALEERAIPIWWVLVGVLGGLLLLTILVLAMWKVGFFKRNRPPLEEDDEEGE

| IC50 [1] [nM] | IC50 (Integrin alpha-V/beta-3) [nM] | SMILES |
| --- | --- | --- |
| 180 | 570 | N=C(N)NCCC[C@@H]1NC(=O)N(CC(=O)NCC(NC(=O)NCc2ccccc2)C(=O)O)C1=O (some centres not stated) |
| > 10000 | 20 | O=C(CN1C(=O)N[C@@H](CCCNC2=NCCN2)C1=O)NCC(NC(=O)OCc1ccccc1)C(=O)O (some centres not stated) |
| 10000 | 3000 | N=C(N)NCCC[C@@H]1NC(=O)N(CC(=O)NCC(/N=C(\S)NCc2ccccc2)C(=O)O)C1=O (some centres not stated) |
|  | 15000 | O=C(C[C@@H]1NC(=O)N(CC(=O)NCC(NC(=O)OCc2ccccc2)C(=O)O)C1=O)NCc1nc2ccccc2[nH]1 (some centres not stated) |
| > 10000 | 580 | O=C(CN1C(=O)N[C@@H](CC(=O)NNC2=NCCN2)C1=O)NCC(NC(=O)OCc1ccccc1)C(=O)O (some centres not stated) |
| 850 | 200 | N=C(N)NCCCC[C@@H]1NC(=O)N(CC(=O)NCC(NC(=O)OCc2ccccc2)C(=O)O)C1=O (some centres not stated) |
| 350 | 760 | CCCCS(=O)(=O)NC(CNC(=O)CN1C(=O)N[C@@H](CCCN=C(N)N)C1=O)C(=O)O (some centres not stated) |
| 550 | 350 | N=C(N)NCCC[C@@H]1NC(=O)N(CC(=O)NCC(NC(=O)CCc2ccccc2)C(=O)O)C1=O (some centres not stated) |
| 2400 | 80 | N=C(N)NCCC[C@@H]1NC(=O)N(CC(=O)NCC(NC(=O)OCc2ccccc2)C(=O)O)C1=O (some centres not stated) |
| > 10000 | 40 | O=C(CN1C(=O)N[C@@H](CCCNc2nc3ccccc3[nH]2)C1=O)NCC(NC(=O)OCc1ccccc1)C(=O)O (some centres not stated) |
| 10000 | 15000 | N=C(N)NC[C@@H]1NC(=O)N(CC(=O)NCC(NC(=O)OCc2ccccc2)C(=O)O)C1=O (some centres not stated) |
| > 10000 | 1660 | O=C(CN1C(=O)N[C@@H](CCCNc2ncccn2)C1=O)NCC(NC(=O)OCc1ccccc1)C(=O)O (some centres not stated) |
| 10000 | 5000 | N=C(N)NCC[C@@H]1NC(=O)N(CC(=O)NCC(NC(=O)OCc2ccccc2)C(=O)O)C1=O (some centres not stated) |
| 200 | 200 | N=C(N)NCCC[C@@H]1NC(=O)N(CC(=O)NCC(NC(=O)c2ccc3ccccc3c2)C(=O)O)C1=O (some centres not stated) |
